Consider nine molecules from PubChem BioAssay AID248 (DTP/NCI, 2004).

Toxic doses and inconclusive results are not listed.

For this experiment, the system named is L1210 leukemia ip in BDF1 mice, survival T/C. The experiment is described as follows: NCI In Vivo Anticancer Drug Screen. Data for tumor model L1210 Leukemia (intraperitoneal) in B6D2F1 (BDF1) mice. As to conditions: endpoint: mean survival time, higher = longer survival. A digest of the protocol:
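Survival endpoint. Drug-treated group vs vehicle group, expressed as T divided by C. Tumor passaged by transplantation.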

The mark [1] stands for this setting: dose: 50.0 mg/kg/injection, schedule: Q01DX009 (ip), vehicle: saline.

Take `CCN(C)N=Nc1cccnc1`: the T/C is, setting by setting: (dose: 10.0 mg/kg/injection, schedule: Q01DX009 (ip), vehicle: saline) 101 % of control; (dose: 15.0 mg/kg/injection, schedule: Q01DX009 (ip), vehicle: saline) 107 % of control; (dose: 22.0 mg/kg/injection, schedule: Q01DX009 (ip), vehicle: Klucel (hydroxypropylcellulose) (HPC)) 111 % of control; (dose: 22.0 mg/kg/injection, schedule: Q01DX009 (ip), vehicle: saline with Tween-80) 110 % of control; (dose: 22.0 mg/kg/injection, schedule: Q01DX009 (ip), vehicle: saline) 112 % of control; (dose: 33.0 mg/kg/injection, schedule: Q01DX009 (ip), vehicle: Klucel (hydroxypropylcellulose) (HPC)) 108 % of control. Also, the T/C runs as follows: (dose: 33.0 mg/kg/injection, schedule: Q01DX009 (ip), vehicle: saline with Tween-80) 122 % of control; (dose: 33.0 mg/kg/injection, schedule: Q01DX009 (ip), vehicle: saline) 152 % of control; (dose: 50.0 mg/kg/injection, schedule: Q01DX009 (ip), vehicle: Klucel (hydroxypropylcellulose) (HPC)) 108 % of control; under setting [1], 170 % of control; (dose: 75.0 mg/kg/injection, schedule: Q01DX009 (ip), vehicle: Klucel (hydroxypropylcellulose) (HPC)) 150 % of control; (dose: 75.0 mg/kg/injection, schedule: Q01DX009 (ip), vehicle: saline with Tween-80) 122 % of control.
Regarding `N=C1SCc2ccc3ccccc3c21`, the T/C (dose: 100.0 mg/kg/injection, schedule: Q01DX001 (ip), vehicle: other) was 92 % of control; the T/C (dose: 200.0 mg/kg/injection, schedule: Q01DX001 (ip), vehicle: other) was 108 % of control; the T/C (dose: 400.0 mg/kg/injection, schedule: Q01DX001 (ip), vehicle: other) was 97 % of control.
Take `NNC(=O)c1cc(Cl)ccn1`: the T/C by setting is: (dose: 100.0 mg/kg/injection, schedule: Q04DX003 (ip), vehicle: saline with Tween-80) 96 % of control; (dose: 200.0 mg/kg/injection, schedule: Q04DX003 (ip), vehicle: saline with Tween-80) 102 % of control; (dose: 400.0 mg/kg/injection, schedule: Q04DX003 (ip), vehicle: saline with Tween-80) 98 % of control.
As to `Fc1c(F)c(F)c(Oc2c(F)c(F)c3c(c2F)C2C=CC3O2)c(F)c1F` (centres undefined), the T/C by setting is: (dose: 50.0 mg/kg/injection, schedule: Q04DX003 (ip), vehicle: Klucel (hydroxypropylcellulose) (HPC)) 95 % of control; (dose: 100.0 mg/kg/injection, schedule: Q04DX003 (ip), vehicle: Klucel (hydroxypropylcellulose) (HPC)) 93 % of control; (dose: 200.0 mg/kg/injection, schedule: Q04DX003 (ip), vehicle: Klucel (hydroxypropylcellulose) (HPC)) 93 % of control.
Take `c1ccc(C(NC2CC3CCC2C3)c2ccccc2)cc1` (centres undefined): the T/C runs as follows: (dose: 50.0 mg/kg/injection, schedule: Q01DX009 (ip), vehicle: saline sonified) 101 % of control; (dose: 100.0 mg/kg/injection, schedule: Q01DX001 (ip), vehicle: Klucel (hydroxypropylcellulose) (HPC)) 109 % of control; (dose: 100.0 mg/kg/injection, schedule: Q01DX009 (ip), vehicle: saline sonified) 95 % of control; (dose: 200.0 mg/kg/injection, schedule: Q01DX001 (ip), vehicle: Klucel (hydroxypropylcellulose) (HPC)) 95 % of control; (dose: 200.0 mg/kg/injection, schedule: Q01DX009 (ip), vehicle: saline sonified) 100 % of control.
As for `COc1ccc(C=C2CCC2)cc1`, the T/C was 95 % of control (dose: 100.0 mg/kg/injection, schedule: Q04DX003 (ip), vehicle: gum acacia); 99 % of control (dose: 200.0 mg/kg/injection, schedule: Q04DX003 (ip), vehicle: gum acacia); 99 % of control (dose: 400.0 mg/kg/injection, schedule: Q04DX003 (ip), vehicle: gum acacia).
Regarding `NNc1nncn1N`, the T/C under setting [1] is 101 % of control; the T/C (dose: 100.0 mg/kg/injection, schedule: Q01DX009 (ip), vehicle: saline) is 102 % of control; the T/C (dose: 100.0 mg/kg/injection, schedule: Q04DX003 (ip), vehicle: saline) was 97 % of control; the T/C (dose: 200.0 mg/kg/injection, schedule: Q01DX009 (ip), vehicle: saline) was 103 % of control; the T/C (dose: 200.0 mg/kg/injection, schedule: Q04DX003 (ip), vehicle: saline) was 94 % of control.
For the molecule `CCOP(=O)(OCCBr)C(c1ccccc1)(c1ccccc1)c1ccccc1` (centres undefined), the T/C is, setting by setting: (dose: 100.0 mg/kg/injection, schedule: Q04DX002 (ip), vehicle: Klucel (hydroxypropylcellulose) (HPC)) 89 % of control; (dose: 200.0 mg/kg/injection, schedule: Q04DX002 (ip), vehicle: Klucel (hydroxypropylcellulose) (HPC)) 92 % of control; (dose: 400.0 mg/kg/injection, schedule: Q04DX002 (ip), vehicle: Klucel (hydroxypropylcellulose) (HPC)) 92 % of control.
As to `COC1OC2COc3ccccc3OC2C2C1N2C(=N)N[N+](=O)[O-]` (centres undefined), the T/C runs as follows: (dose: 40.0 mg/kg/injection, schedule: Q04DX002 (ip), vehicle: saline) 102 % of control; (dose: 160.0 mg/kg/injection, schedule: Q04DX002 (ip), vehicle: saline) 102 % of control.
